Source: US20200223889A1, “Bicyclic Compounds Capable of Binding to Melanocortin 4 Receptor” (Novo Nordisk A/S, priority 2017, published 2020)
Like-named read-outs stand apart in the source and are kept apart here. Positions of bridges follow the written chain, without caps; N, C: chain ends. Non-standard residues stand in square brackets, D forms with d. Residues, ends and D or L forms follow the SMILES beside them. Ser(ΨH,HPro) = O=C(O)[C@@H]1COCN1; Dab = NCC[C@H](N)C(=O)O; Aib = CC(C)(N)C(=O)O; GABA = NCCCC(=O)O

What was measured:
human MC4R [1] = target: T1, human MC4R (Homo sapiens, UniProt P32245); test: 125NDP-α-MSH competitive binding to membranes of BHK cells expressing human MC4 receptor (filtration assay)
T1 construct: expressed in transfected cells
Method in brief: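 Displacement of ^125NDP-α-MSH (apx. […] final) was measured by filtration after 2 h at 25 °C, using diluted membranes of stably transfected BHK cells in pH 7.0 HEPES buffer. Compounds spanned 1 μM to 0.001 nM; binding curves were analysed by non-linear regression.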

human MC4R [2] = target: T1, human MC4R; test: Functional cAMP assay (CisBio HTRF) in BHK cells expressing human MC4R; assay type: cell-based; details: for MC1R/MC4R cAMP EC50 ratio: MC1R cAMP EC50 divided by MC4R cAMP EC50
Method in brief: (§1)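 Stably transfected BHK cells expressing human MC1R or MC4R; cAMP quantified by HTRF (cAMP-d2/cryptate) after 30 min compound stimulation at 25 °C in DMEM-based buffer with 1 mM IBMX. Compounds were prepared as 10-fold serial dilutions starting at 2 μM (working solution, 2× final). Readout after 1 h at 25 °C; non-linear regression.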

human MC1R = target: T2, human MC1R (Homo sapiens, UniProt Q01726); test: Functional cAMP assay (CisBio HTRF) in BHK cells expressing human MC1R; assay type: cell-based
T2 construct: expressed in transfected cells
Method in brief: as §1

[3] = human MC4R, BHK cell membranes, 125NDP-α-MSH radioligand, read-out: MC4R binding Ki
[4] = BHK cells expressing human MC1R, '>' = highest dose used with no response, read-out: MC1R cAMP EC50
[5] = BHK cells expressing human MC4R, '>' = highest dose used with no response, read-out: MC4R cAMP EC50

T1 sequence (P32245 whole entry): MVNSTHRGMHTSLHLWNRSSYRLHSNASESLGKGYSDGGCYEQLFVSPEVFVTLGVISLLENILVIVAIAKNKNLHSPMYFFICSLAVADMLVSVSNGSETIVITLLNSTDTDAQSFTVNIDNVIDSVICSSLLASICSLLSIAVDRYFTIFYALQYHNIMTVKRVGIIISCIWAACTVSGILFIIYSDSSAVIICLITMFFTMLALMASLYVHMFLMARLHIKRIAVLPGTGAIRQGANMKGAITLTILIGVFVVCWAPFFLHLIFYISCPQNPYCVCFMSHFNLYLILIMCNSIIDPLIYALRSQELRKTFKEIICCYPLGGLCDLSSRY
T2 sequence (Q01726 whole entry): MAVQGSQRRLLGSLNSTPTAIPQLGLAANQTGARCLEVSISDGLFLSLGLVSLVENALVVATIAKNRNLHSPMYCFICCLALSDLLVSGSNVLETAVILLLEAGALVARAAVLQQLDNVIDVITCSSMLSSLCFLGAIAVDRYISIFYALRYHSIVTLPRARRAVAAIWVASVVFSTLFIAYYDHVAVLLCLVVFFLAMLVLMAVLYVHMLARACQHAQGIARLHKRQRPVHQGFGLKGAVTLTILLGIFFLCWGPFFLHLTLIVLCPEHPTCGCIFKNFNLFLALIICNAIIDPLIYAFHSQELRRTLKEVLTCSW

With `C[C@@H]1NC(=O)[C@@H]2CSSC[C@H](NC(=O)[C@H](Cc3c[nH]c4ccccc34)NC(=O)[C@H](CCCCN)NC(=O)[C@H](CCCCN)NC(=O)[C@H](CCCCN)NC1=O)C(=O)N1CCC[C@@H]1C(=O)N[C@@H](Cc1c[nH]cn1)C(=O)N[C@H](Cc1ccccc1)C(=O)N[C@@H](Cc1c[nH]cn1)C(=O)N[C@@H](Cc1c[nH]c3ccccc13)C(=O)N2` [Chem. 98, c[c[Cys-D-Pro-His-D-Phe-His-Trp- Cys]-Ala-Lys-Lys-Lys-Trp]] (cyclo(AKKKWC[dP]H[dF]HWC); disulfide 6-12) the Ki (human MC4R [1]; [3]) was 0.6 nM, the “MC1R/MC4R cAMP EC50 ratio” value (human MC4R [2]) was over 20 and the EC50 (human MC1R; [4]) was over 55 nM.

With `N=C(N)NCCC[C@@H]1NC(=O)[C@@H](Cc2ccccc2)NC(=O)[C@H](Cc2c[nH]cn2)NC(=O)CCCNC(=O)[C@@H]2CSSC[C@H](NC(=O)[C@H](Cc3c[nH]c4ccccc34)NC1=O)C(=O)NCCCC(=O)N[C@@H](Cc1c[nH]cn1)C(=O)N[C@H](Cc1ccccc1)C(=O)N[C@@H](CCCNC(=N)N)C(=O)N[C@@H](Cc1c[nH]c3ccccc13)C(=O)N2` [Chem. 35, c[c[Cys-GABA-His-D-Phe-Arg-Trp- Cys]-GABA-His-D-Phe-Arg-Trp]] (cyclo(C[GABA]H[dF]RWC[GABA]H[dF]RW); disulfide 1-7) the Ki (human MC4R [1]; [3]) was 0.03 nM, the EC50 (human MC4R [2]; [5]) was 0.01 nM and the “MC1R/MC4R cAMP EC50 ratio” value (human MC4R [2]) was 28. The EC50 (human MC1R; [4]) was 0.28 nM.

With `C[C@@H]1NC(=O)[C@@H]2CSSC[C@H](NC(=O)[C@H](Cc3c[nH]c4ccccc34)NC(=O)[C@H](CCCCN)NC(=O)[C@H](CCCCN)NC(=O)[C@H](CCCCN)NC1=O)C(=O)NC(C)(C)C(=O)N[C@@H](Cc1c[nH]cn1)C(=O)N[C@H](Cc1ccccc1)C(=O)N[C@@H](Cc1c[nH]cn1)C(=O)N[C@@H](Cc1c[nH]c3ccccc13)C(=O)N2` [Chem. 61, c[c[Cys-Aib-His-D-Phe-His-Trp-Cys]- Ala-Lys-Lys-Lys-Trp]] (cyclo(AKKKWC[Aib]H[dF]HWC); disulfide 6-12) the Ki (human MC4R [1]; [3]) was 0.22 nM, the EC50 (human MC4R [2]; [5]) was 0.31 nM and the “MC1R/MC4R cAMP EC50 ratio” value (human MC4R [2]) was over 3. It also gave an EC50 (human MC1R; [4]) of over 1 nM.

For `C[C@@H]1NC(=O)[C@@H]2CSSC[C@H](NC(=O)[C@H](Cc3c[nH]c4ccccc34)NC(=O)[C@H](CCCNC(=N)N)NC(=O)[C@@H](Cc3ccccc3)NC(=O)[C@H](Cc3c[nH]cn3)NC1=O)C(=O)N[C@@H](CCCNC(=N)N)C(=O)N[C@@H](Cc1ccccc1)C(=O)N[C@@H](Cc1ccccc1)C(=O)N[C@@H](CC(N)=O)C(=O)N[C@@H](C)C(=O)N2` [Chem. 12, c[c[Cys-Ala-His-D-Phe-Arg-Trp-Cys]- Arg-Phe-Phe-Asn-Ala]] (cyclo(ACAH[dF]RWCRFFN); disulfide 2-8), the Ki (human MC4R [1]) was 0.28 nM, the EC50 (human MC4R [2]) was 0.07 nM and the “MC1R/MC4R cAMP EC50 ratio” value (human MC4R [2]) was 57. The EC50 (human MC1R) was 3.97 nM.

`C[C@@H]1NC(=O)[C@@H]2CSSC[C@H](NC(=O)[C@H](Cc3c[nH]c4ccccc34)NC(=O)[C@H](CCCCN)NC(=O)[C@H](CCCCN)NC(=O)[C@H](CCCCN)NC1=O)C(=O)N1COC[C@H]1C(=O)N[C@@H](Cc1c[nH]cn1)C(=O)N[C@H](Cc1ccccc1)C(=O)N[C@@H](Cc1c[nH]cn1)C(=O)N[C@@H](Cc1c[nH]c3ccccc13)C(=O)N2` [Chem. 103, c[c[Cys-OXA-His-D-Phe-His-Trp- Cys]-Ala-Lys-Lys-Lys-Trp]] (cyclo(AKKKWC[Ser(ΨH,HPro)]H[dF]HWC); disulfide 6-12) was tested, and the Ki (human MC4R [1]; [3]) was 0.06 nM, the EC50 (human MC4R [2]; [5]) was 0.05 nM and the “MC1R/MC4R cAMP EC50 ratio” value (human MC4R [2]) was over 1400. It also gave an EC50 (human MC1R; [4]) of over 70 nM.

With `C[C@@H]1NC(=O)[C@@H]2CSSC[C@H](NC(=O)[C@H](Cc3c[nH]c4ccccc34)NC(=O)[C@H](CCCCN)NC(=O)[C@H](CCCCN)NC(=O)[C@H](CCCCN)NC1=O)C(=O)N1CCC[C@H]1C(=O)N[C@@H](Cc1c[nH]cn1)C(=O)N[C@H](Cc1ccccc1)C(=O)N[C@@H](Cc1c[nH]cn1)C(=O)N[C@@H](Cc1c[nH]c3ccccc13)C(=O)N2` [Chem. 62, c[c[Cys-Pro-His-D-Phe-His-Trp-Cys]- Ala-Lys-Lys-Lys-Trp]] (cyclo(AKKKWCPH[dF]HWC); disulfide 6-12) the Ki (human MC4R [1]; [3]) was 0.13 nM, the EC50 (human MC4R [2]; [5]) was 0.17 nM and the “MC1R/MC4R cAMP EC50 ratio” value (human MC4R [2]) was over 6. It also gave an EC50 (human MC1R; [4]) of over 1 nM.

Work on `N=C(N)NCCC[C@@H]1NC(=O)[C@@H](Cc2ccccc2)NC(=O)[C@H](Cc2c[nH]cn2)NC(=O)[C@H]2CCCN2C(=O)[C@@H]2CSSC[C@H](NC(=O)[C@H](Cc3c[nH]c4ccccc34)NC1=O)C(=O)N1CCC[C@@H]1C(=O)N[C@@H](Cc1c[nH]cn1)C(=O)N[C@H](Cc1ccccc1)C(=O)N[C@@H](CCCNC(=N)N)C(=O)N[C@@H](Cc1c[nH]c3ccccc13)C(=O)N2` [Chem. 33, c[c[Cys-D-Pro-His-D-Phe-Arg-Trp- Cys]-D-Pro-His-D-Phe-Arg-Trp]] (cyclo(C[dP]H[dF]RWC[dP]H[dF]RW); disulfide 1-7) yielded a Ki (human MC4R [1]; [3]) of 27.8 nM, an EC50 (human MC4R [2]; [5]) of 19.8 nM and an EC50 (human MC1R; [4]) of over 1 nM.

`C[C@@H]1NC(=O)[C@H](C)NC(=O)[C@H](C)NC(=O)[C@@H]2CSSC[C@H](NC(=O)[C@H](Cc3c[nH]c4ccccc34)NC(=O)[C@H](C)NC1=O)C(=O)N[C@@H](C)C(=O)N[C@@H](Cc1c[nH]cn1)C(=O)N[C@H](Cc1ccccc1)C(=O)N[C@@H](CCCNC(=N)N)C(=O)N[C@@H](Cc1c[nH]c3ccccc13)C(=O)N2` [Chem. 87, c[c[Cys-Ala-His-D-Phe-Arg-Trp-Cys]- Ala-Ala-Ala-Ala-Trp]] (cyclo(AAAAWCAH[dF]RWC); disulfide 6-12) was tested, and the Ki (human MC4R [1]) was 0.17 nM, the EC50 (human MC4R [2]) was 0.04 nM and the “MC1R/MC4R cAMP EC50 ratio” value (human MC4R [2]) was 35. The EC50 (human MC1R) was 1.39 nM.

For `C[C@@H]1NC(=O)[C@@H]2CSSC[C@H](NC(=O)[C@H](CCCNC(=N)N)NC(=O)[C@H](CCCCN)NC(=O)[C@H](CCCCN)NC(=O)[C@H](CCCCN)NC1=O)C(=O)N[C@H](C)C(=O)N[C@@H](Cc1c[nH]cn1)C(=O)N[C@H](Cc1ccccc1)C(=O)N[C@@H](CCCNC(=N)N)C(=O)N[C@@H](Cc1c[nH]c3ccccc13)C(=O)N2` [Chem. 85, c[c[Cys-D-Ala-His-D-Phe-Arg-Trp- Cys]-Ala-Lys-Lys-Lys-Arg]] (cyclo(AKKKRC[dA]H[dF]RWC); disulfide 6-12), the Ki (human MC4R [1]; [3]) was 0.02 nM, the EC50 (human MC4R [2]; [5]) was 0.01 nM and the “MC1R/MC4R cAMP EC50 ratio” value (human MC4R [2]) was 22. It also gave an EC50 (human MC1R; [4]) of 0.22 nM.

For `CC1(C)NC(=O)[C@@H]2CSSC[C@H](NC(=O)[C@H](Cc3c[nH]c4ccccc34)NC(=O)[C@H](CCN)NC(=O)[C@@H](Cc3ccccc3)NC(=O)[C@H](Cc3c[nH]cn3)NC1=O)C(=O)NC(C)(C)C(=O)N[C@@H](Cc1c[nH]cn1)C(=O)N[C@H](Cc1ccccc1)C(=O)N[C@@H](CCN)C(=O)N[C@@H](Cc1c[nH]c3ccccc13)C(=O)N2` [Chem. 46, c[c[Cys-Aib-His-D-Phe-Dab-Trp- Cys]-Aib-His-D-Phe-Dab-Trp]] (cyclo([Aib]H[dF][Dab]WC[Aib]H[dF][Dab]WC); disulfide 6-12), the Ki (human MC4R [1]; [3]) was 7.86 nM, the EC50 (human MC4R [2]; [5]) was 5.65 nM and the “MC1R/MC4R cAMP EC50 ratio” value (human MC4R [2]) was over 1. It also gave an EC50 (human MC1R; [4]) of over 5.5 nM.

For `C[C@@H]1NC(=O)[C@@H]2CSSC[C@H](NC(=O)[C@H](Cc3c[nH]c4ccccc34)NC(=O)[C@H](CCCNC(=N)N)NC(=O)[C@@H](Cc3ccccc3)NC(=O)[C@H](Cc3c[nH]cn3)NC1=O)C(=O)N1CCC[C@H]1C(=O)N1CCC[C@H]1C(=O)N[C@@H](CCC(=O)O)C(=O)N[C@@H](CCCNC(=N)N)C(=O)N[C@@H](Cc1c[nH]c3ccccc13)C(=O)N2` [Chem. 112, c[c[Cys-Ala-His-D-Phe-Arg-Trp-Cys]- Pro-Pro-Glu-Arg-Trp]] (cyclo(AH[dF]RWCPPERWC); disulfide 6-12), the Ki (human MC4R [1]; [3]) was 1.21 nM, the EC50 (human MC4R [2]; [5]) was 0.19 nM and the “MC1R/MC4R cAMP EC50 ratio” value (human MC4R [2]) was 159. It also gave an EC50 (human MC1R; [4]) of 30.2 nM.

`C[C@@H]1NC(=O)[C@H](C)NC(=O)[C@@H]2CSSC[C@H](NC(=O)[C@H](Cc3c[nH]c4ccccc34)NC(=O)[C@H](C)NC(=O)[C@@H](Cc3ccccc3)NC1=O)C(=O)N[C@@H](C)C(=O)N[C@@H](Cc1c[nH]cn1)C(=O)N[C@H](Cc1ccccc1)C(=O)N[C@@H](CCCNC(=N)N)C(=O)N[C@@H](Cc1c[nH]c3ccccc13)C(=O)N2` [Chem. 11, c[[Cys-Ala-His-D-Phe-Arg-Trp-Cys]- Ala-Ala-D-Phe-Ala-Trp]] (cyclo(AA[dF]AWCAH[dF]RWC); disulfide 6-12) was tested, and the Ki (human MC4R [1]) was 0.25 nM, the EC50 (human MC4R [2]) was 0.03 nM and the “MC1R/MC4R cAMP EC50 ratio” value (human MC4R [2]) was 72. It also gave an EC50 (human MC1R) of 2.17 nM.
